Measured values published in patent publication US7855211B2, “Protein kinase inhibitors” (Eli Lilly and Company, priority 2008, dated 2010).
Like-named read-outs stand apart in the source and are kept apart here.

How the values were obtained:
Solubility Assay = type: physicochemical; conditions: aqueous buffer, thermodynamic from solid; pH 8 phosphate buffer, ambient temperature, at least 16 hours, target 2.0 mg/mL
Protocol: The appropriate amounts of test compound are weighed into separate chromatographic vials. […] The vials are capped securely and placed in a rotation device. The vials are rotated through 360° for at least 16 hours at ambient temperature with an angular speed of about 50 rpm. A visual examination of the individual vials is performed after rotation. 250 μL from each vial is filtered through a 0.7 μm glass filter. The sample filtrate and standard filtrate are collected into separate wells of 96 deep well plates. […] The sample and standard solutions are analysed by HPLC (LC Column: […] A—0.2% Formic Acid in Water; B—0.2% Formic Acid in acetonitrile; […] Diode array detector scan from 200 nm to 400 nm. The wavelength extracted and used for quantitation is selected to provide the most accurate estimation of the sample preparations.) Retention time used for peak assignment for the test compound is obtained from the 200 μg/mL standard preparation chromatogram. Solubility values are calculated using a four-level calibration curve. The line of best fit for peak area of calibration standards calculated by chromatographic management data system using linear or quadratic through zero fit is used. Solubility results are reported in mg/mL. Preferred exemplified compounds display a solubility of at least 2 mg/ml in pH 8 phosphate buffer using the above assay.

[1] = system: Human colorectal cancer cells (colo-205); assay: Human subcutaneous xenograft model, colo-205, athymic nude mice; type: in vivo; conditions: oral gavage daily for 21 days
Protocol: (§1) Test compound is prepared in an appropriate vehicle (1% hydroxyethyl cellulose, in 25 mM phosphate buffer pH 2) and is administered by oral gavage daily (at 25, 50 or 100 mg/kg (mpk)) for 21 days when tumours are established (11-29 days after implant). Tumour response is determined by tumour volume measurement performed twice a week during the course of treatment.
(§2) The statistical method for assessing Tumour Growth Delay (TGD-Individual interpolation method) is as follows: For each animal, the time to reach a specified tumour volume (threshold) is calculated by interpolating between the last measurement before reaching the threshold and the next measurement. The interpolation is linear using log10(volume) vs. time. If an animal never reaches the threshold, its crossing time is reported at “>T” where T is the last day measured for that animal. These crossing times are analyzed as “time-to-event” data with right-censoring using a Weibull distribution. A mean and standard deviation are determined for each treatment group. Tumour growth delay (TGD) is the difference in mean crossing time between a treated group and the vehicle control group. T-tests are performed using the means and standard deviations from the Weibull analysis. Body weight is taken as a general measurement of toxicity.

[2] = system: human acute myeloid leukaemia (AML) cells (MV4-11); assay: Human subcutaneous xenograft model, MV4-11, athymic nude mice; type: in vivo; conditions: for TGD Days (750 m3): oral gavage daily for 21 days
Protocol: as §1, §2

[3] = system: human glioblastoma cells (U87MG); assay: Human subcutaneous xenograft model, U87MG, athymic nude mice; type: in vivo; conditions: U87 MG, oral gavage daily for 21 days
Protocol: as §1, §2

[4] = system: human lung cancer cells (NCI H460); assay: Human subcutaneous xenograft model, NCI H460, athymic nude mice; type: in vivo; conditions: oral gavage daily for 21 days
Protocol: as §1, §2

[5] = system: U87 MG human glioblastoma tumour cells; assay: Orthotopic Brain Xenograft Model, NIH-RNU rats, survival; type: in vivo
Excerpt: Test compound is formulated in vehicle (1% w/v hydroxyethylcellulose/0.25% v/v polysorbate 80/0.05% v/v antifoam in purified water) and administered every day for 21 days at 20, 40 and 80 mpk (qdx21) and 80 mpk q2dx10 starting on day 4 after tumour implant.
The primary outcome variable is survival.

[6] = Plasma and brain exposure in non-tumour bearing male Sprague Dawley rats; type: in vivo, rat; conditions: male SD rats; for concentration at 2 h / concentration at 4 h / concentration at 24 h / concentration at 48 h: single oral dose 30 mg/kg
Protocol: Samples are taken over 48 h in order to determine plasma and brain concentrations. Animals are sacrificed, and whole blood collected by cardiac puncture and plasma isolated by centrifugation. Whole brain is collected and snapped frozen in liquid nitrogen. […] An internal standard compound in acetonitrile/methanol (1:1, v/v) is added to samples of plasma or brain homogenate to precipitate protein and the samples are centrifuged prior to analysis. The supernatants are analysed by injection and rapid gradient elution on a Javelin Betasil C18 column (20×2.1 mm cartridge, Mobile phase A: […] The eluted analytes are detected by LC-MS-MS analysis using a Sciex API 4000 triple quadrupole mass spectrometer. Concentrations of compounds in plasma or brain are determined from standards prepared under identical conditions. The plasma and brain concentrations are determined in this study from a group of three rats at each time point (see Tables 6a and 6b) and are used to calculate the area under the plasma concentration/time curve or the brain concentration/time curve from 0 to 48 hours. […] Maximal concentrations (Tmax) are detected at 4 h.

[7] = Sprague Dawley, rat, brain, read-out: Brain concentration (Mean)
[8] = Sprague Dawley, rat, plasma, read-out: Plasma concentration (Mean)

With `CCN1CCN(Cc2ccc(Nc3ncc(F)c(-c4cc(F)c5nc(C)n(C(C)C)c5c4)n3)nc2)CC1.CS(=O)(=O)O` [Example 16, [5-(4-Ethyl-piperazin-1-ylmethyl)-pyridin-2-yl]-[5-fluoro-4-(7-fluoro-3-isopropyl-2-methyl-3H-benzoimidazol-5-yl)-pyrimidin-2-yl]-amine methanesulfonate] the solubility (Solubility Assay) was 2100 µg/mL, the “TGD Days (750 m3)” value ([1]; colo-205, 25 mpk) was 15.3 days and the “TGD Days (750 m3)” value ([1]; colo-205, 50 mpk) was 17.4 days. For the same compound, the “TGD Days (750 m3)” value ([1]; colo-205, 100 mpk) was 39.9 days, the tumour response ([2]; AML MV4-11 xenografts, 100 mg per Kg (mpk)) was “tumour regression is observed” and the “TGD Days (750 m3)” value ([2]; MV4-11, 25 mpk) was 10.4 days. For the same compound, the “TGD Days (750 m3)” value ([2]; MV4-11, 50 mpk) was 11.5 days, the “Tumor volume (mg) at start of dosing period (day 28)” value ([2]; MV4-11, 100 mpk, PO, qdx21, day 28) was 225.94 mg and the “Tumor volume (mg) at end of dosing period (day 49)” value ([2]; MV4-11, 100 mpk, PO, qdx21, day 49) was 116.68 mg. For the same compound, the “TGD Days (750 m3)” value ([2]; MV4-11, 100 mpk) was 28.8 days, the “TGD Days (750 m3)” value ([3]; 25 mpk) was 6.1 days and the “TGD Days (750 m3)” value ([3]; 50 mpk) was 10.0 days. The “TGD Days (750 m3)” value ([3]; 100 mpk) was 21.4 days, the “TGD Days (750 m3)” value ([4]; H460, 25 mpk) was 1.5 days and the “TGD Days (750 m3)” value ([4]; H460, 50 mpk) was 4.0 days. The “TGD Days (750 m3)” value ([4]; H460, 100 mpk) was 6.7 days, the “median survival compared to vehicle treated animals” value ([5]; 40 mpk qd, 80 mpk qd and 80 mpk q2d) was “statistically significant increase in median survival” and the “Mean Survival” value ([5]; PO 20 mg/kg qd) was 29.8 days. For the same compound, the “Median Survival” value ([5]; PO 20 mg/kg qd) was 31 days, the “Mean Survival” value ([5]; PO 40 mg/kg qd) was 34.3 days and the “Median Survival” value ([5]; PO 40 mg/kg qd) was 37 days. For the same compound, the “Mean Survival” value ([5]; PO 80 mg/kg q2d) was 33.0 days, the “Median Survival” value ([5]; PO 80 mg/kg q2d) was 34 days and the “Mean Survival” value ([5]; PO 80 mg/kg qd) was 36.9 days. The “Median Survival” value ([5]; PO 80 mg/kg qd) was 37 days, the concentration at 2 h [6, 7] was 758 ng/g and the concentration at 4 h [6, 7] was 1500 ng/g. The concentration at 24 h [6, 7] was 992 ng/g, the concentration at 48 h [6, 7] was 718 ng/g and the Cmax ([6]; Sprague Dawley, rat, plasma, 30 mg/kg oral) was 1500 ng/mL. The concentration at 2 h [6, 8] was 1010 ng/mL, the concentration at 4 h [6, 8] was 1500 ng/mL and the concentration at 24 h [6, 8] was 1020 ng/mL. The concentration at 48 h [6, 8] was 972 ng/mL, the Tmax ([6]; Sprague Dawley, rat, 30 mg/kg oral, plasma and brain, read-out: Maximal concentrations (Tmax)) was 4 h and the “Cmax Brain” value ([6]; 30 mg/kg oral) was 1500 ng/g. The “Tmax Brain” value ([6]; 30 mg/kg oral) was 4.00 h, the “Tmax Plasma” value ([6]; 30 mg/kg oral) was 4.00 h and the blood-brain barrier penetration ([6]; 30 mg/kg oral) was “able to cross the blood-brain barrier and distributes well into the brain”. The “AUC Brain” value ([6]; 30 mg/kg oral, 0-48 Hours) was 47900 ng·h/g, the “AUC Plasma” value ([6]; 30 mg/kg oral, 0-48 Hours) was 52300 ng·h/mL and the Kp ([6]; male, Sprague Dawley, rat, brain/plasma, po, 30 mg/kg, 30 mg/kg oral, 0-48 Hours, read-out: AUC Brain/Plasma Ratio) was 0.92. For the same compound, the Kp ([6]; male, Sprague Dawley, rat, brain/plasma, po, 30 mg/kg, 30 mg/kg oral, by AUC or Cmax, read-out: brain/plasma ratio) was roughly 1 and the Kp at 4 h ([6]; male, Sprague Dawley, rat, brain/plasma, po, 30 mg/kg, 30 mg/kg oral, read-out: Cmax Brain/Plasma Ratio) was 1.
